From patent US11993581B2, “Pyridazine compounds for inhibiting Nav1.8” (Lieber Institute, Inc., priority 2018, dated 2024)

Target: T1, human Nav1.8 (hNav1.8) ion channel (Homo sapiens, UniProt Q9Y5Y9)
T1 construct: expressed in transfected cells
Experiment: Nav1.8 inhibition, estimated IC50 (Nav1.8 fluorescence, PatchXpress and/or IonFlux HT automated patch clamp assay)
Type: cell-based
Conditions: HEK293 cells stably expressing hNav1.8; determined using one or more of the described methods; read-out: Activity range (estimated IC50)
Description: The ability of pyridine carboxamide derivatives exemplified above to inhibit the Nav1.8 channel was determined using one or more of the methods described below.
HEK Nav1.8 β1/β2 Stably Expressing Cell Line
A HEK293 cell line stably expressing the human Nav1.8 (hNav1.8) ion channel with β1/β2 subunits was constructed. The cell line is suitable for IC50 determination in fluorescence and electrophysiological based assays. It is also suitable to conduct mechanism of action pharmacology studies in electrophysiological assays. HEK293 Nav1.8 cells are grown as adherent monolayers in DMEM/high glucose media, 10% fetal bovine serum, Na pyruvate (2 mM), Hepes (10 mM) with selection agents G418 (400 mg/L) and puromycin (0.5 mg/L) at 37 degrees C., 10% CO2.
Nav1.8 Fluorescence Inhibition Assay
Compounds were made up to or supplied as a 10-mM stock solution using DMSO as the vehicle. Concentration-response curves were generated using a Matrix multichannel pipettor. Compound source plates were made by diluting 10 mM compound stocks to create 500 μM (100×) solutions in DMSO in 96-well v-bottom plates. Compounds were then serially diluted in 100% DMSO to generate a 5 point, 4-fold dilution scheme dose response curve. 2 μL of the 100× dose response curves were then added to preincubation and stimulation assay plates. 100 μL of pre-incubation buffer and 200 μl of stimulation buffer was then added to the plates resulting in a final assay test concentration range of 5 μM to 0.02 μM with a final DMSO concentration of 1%.
On the day of assay, plates were washed to remove cell culture media using 2K EBSS buffer (135 mM NaCl, 2 mM KCl, 5 mM Glucose, 2 mM CaCl2, 1 mM MgCl2, 10 mM HEPES, pH 7.4). The Na-sensitive fluorescent dye, Asante Natrium Green-2 (ANG-2) was incubated for 60 min to allow equilibration and then washed with 2K EBSS. Plates were then transferred to a fluorescence plate reader (FLIPR™, Molecular Devices) for fluorescence measurement using an excitation wavelength of 490 nm and an emission wavelength of 565 nm. Compounds were pre-incubated for 5 min at final test concentration in the presence of ouabain (30 μM) to inhibit Na+ efflux through Na+/K+ exchanger. Following the pre-incubation phase, hNav1.8 channels were stimulated with 10 μM of the pyrethroid deltamethrin to prevent channel inactivation. The assay was run for 15 minutes with vehicle and 30 μM tetracaine serving as negative and positive controls, respectively. The peak change in fluorescence relative to negative and positive control wells was calculated and fit with a logistic equation to determine IC50.
PatchXpress Nav1.8 Inhibition Assay
HEK-Nav1.8 β1/β2 cells were recorded in whole cell patch-clamp using the PatchXpress automated patch clamp platforms (Molecular Devices). Cell suspensions were obtained by trypsinization of adherent monolayers, followed by gentle rocking for minimally 30 min. Compounds were prepared from 10 mM DMSO stocks.
Nav1.8 channel variants were evaluated using Protocol 1 in which cells were initially voltage clamped at a holding potential of −100 mV to maintain Nav1.8 in a closed resting state. After current amplitude becomes stable, the mid-point voltage of steady state inactivation was determined for each cell using a series of 5 sec conditioning steps to increasingly depolarized voltages (−100 to 0 mV) The holding potential was then reset to a voltage that produces ˜50% inactivation (Vhalf-set automatically via PatchXpress scripts) so that closed and inactivated channel inhibition could be assessed. Protocol 1 was run at a frequency of 0.1 Hz until current amplitude is steady (automatically determined by PatchXpress scripts). The effect of test reagent on Nav current amplitude was monitored using custom PatchXpress stability scripts which determines the timing of compound addition and washout.
Data were processed and analyzed using DataXpress 2.0 (Molecular Devices). […]

T1 sequence (Q9Y5Y9 whole entry): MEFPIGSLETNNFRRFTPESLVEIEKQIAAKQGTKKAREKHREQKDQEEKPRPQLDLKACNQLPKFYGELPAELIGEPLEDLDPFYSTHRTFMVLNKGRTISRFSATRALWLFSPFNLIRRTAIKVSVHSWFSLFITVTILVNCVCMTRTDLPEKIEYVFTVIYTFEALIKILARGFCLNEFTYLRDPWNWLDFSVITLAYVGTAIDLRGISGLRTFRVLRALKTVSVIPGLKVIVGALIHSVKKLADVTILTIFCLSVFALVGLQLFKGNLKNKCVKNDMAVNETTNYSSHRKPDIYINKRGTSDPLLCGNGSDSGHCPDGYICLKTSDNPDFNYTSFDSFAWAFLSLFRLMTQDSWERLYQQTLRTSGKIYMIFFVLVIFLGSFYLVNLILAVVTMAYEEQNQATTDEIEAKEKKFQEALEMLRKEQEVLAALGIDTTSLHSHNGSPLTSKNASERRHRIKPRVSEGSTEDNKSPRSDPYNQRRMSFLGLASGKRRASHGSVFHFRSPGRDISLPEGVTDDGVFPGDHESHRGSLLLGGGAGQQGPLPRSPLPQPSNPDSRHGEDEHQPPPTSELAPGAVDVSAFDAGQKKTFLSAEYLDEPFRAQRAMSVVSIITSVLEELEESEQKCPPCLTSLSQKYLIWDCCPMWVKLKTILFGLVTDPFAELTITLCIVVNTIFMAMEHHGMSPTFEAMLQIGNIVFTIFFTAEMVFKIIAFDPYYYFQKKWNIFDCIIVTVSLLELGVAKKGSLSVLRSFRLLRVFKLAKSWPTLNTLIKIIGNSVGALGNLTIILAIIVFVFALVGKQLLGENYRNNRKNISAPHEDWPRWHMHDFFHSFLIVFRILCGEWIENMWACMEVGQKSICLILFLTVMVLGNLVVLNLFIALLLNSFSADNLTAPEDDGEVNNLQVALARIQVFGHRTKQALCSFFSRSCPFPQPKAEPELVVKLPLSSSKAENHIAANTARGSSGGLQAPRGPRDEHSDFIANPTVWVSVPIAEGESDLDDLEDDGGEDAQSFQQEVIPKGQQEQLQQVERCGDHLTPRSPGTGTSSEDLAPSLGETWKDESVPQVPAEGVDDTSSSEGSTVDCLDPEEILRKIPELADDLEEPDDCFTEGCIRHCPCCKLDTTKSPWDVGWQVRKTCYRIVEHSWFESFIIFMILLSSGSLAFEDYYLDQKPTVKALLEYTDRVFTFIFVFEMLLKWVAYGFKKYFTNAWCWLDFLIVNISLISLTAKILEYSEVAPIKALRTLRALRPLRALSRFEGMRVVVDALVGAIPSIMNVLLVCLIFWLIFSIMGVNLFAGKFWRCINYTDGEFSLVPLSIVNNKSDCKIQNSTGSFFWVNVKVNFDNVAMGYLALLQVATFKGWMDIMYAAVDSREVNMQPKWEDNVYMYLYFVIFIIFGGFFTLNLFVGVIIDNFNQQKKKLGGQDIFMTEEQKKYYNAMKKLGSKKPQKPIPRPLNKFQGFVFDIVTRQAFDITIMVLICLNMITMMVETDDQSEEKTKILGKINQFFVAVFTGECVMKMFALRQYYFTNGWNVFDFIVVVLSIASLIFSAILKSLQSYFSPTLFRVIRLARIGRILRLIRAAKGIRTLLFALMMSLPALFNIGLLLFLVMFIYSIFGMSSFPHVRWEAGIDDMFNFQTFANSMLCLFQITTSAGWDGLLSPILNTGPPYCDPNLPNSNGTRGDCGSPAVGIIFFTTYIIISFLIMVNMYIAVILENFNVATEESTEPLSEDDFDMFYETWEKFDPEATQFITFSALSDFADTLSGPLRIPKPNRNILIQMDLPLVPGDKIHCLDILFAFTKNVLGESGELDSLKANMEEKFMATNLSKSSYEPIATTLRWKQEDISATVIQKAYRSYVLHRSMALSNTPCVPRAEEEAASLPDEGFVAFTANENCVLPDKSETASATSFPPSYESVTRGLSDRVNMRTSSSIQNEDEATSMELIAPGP
T1 sequence (Q07699 19-218 partner): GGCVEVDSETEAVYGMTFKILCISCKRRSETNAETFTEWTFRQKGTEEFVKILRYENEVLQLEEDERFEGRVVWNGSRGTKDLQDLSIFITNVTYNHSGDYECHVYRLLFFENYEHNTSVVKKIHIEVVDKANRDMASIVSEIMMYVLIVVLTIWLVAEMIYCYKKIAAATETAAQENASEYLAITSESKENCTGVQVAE

Structure (SMILES): Cc1ccnc(N2CCOCC2)c1CNC(=O)c1cnnc(-c2ccc(OC(F)(F)F)cc2)c1 [Example 59, N-[(4-methyl-2-morpholino-3-pyridyl)methyl]-6-[4-(trifluoromethoxy)phenyl]pyridazine-4-carboxamide]
- IC50: < 500 nM

Structure (SMILES): Cc1ccnc(N2CCOCC2)c1CNC(=O)c1cnnc(-c2ccc(Cl)cc2)c1 [Example 60, 6-(4-chlorophenyl)-N-[(4-methyl-2-morpholino-3-pyridyl)methyl]pyridazine-4-carboxamide]
- IC50: < 500 nM
